Reference: US20230330151A1, “COMPOSITION FOR PROMOTING DIFFERENTIATION OF NEURAL STEM CELLS INTO DOPAMINERGIC NEURONS” (CHA UNIVERSITY INDUSTRY-ACADEMIC COOPERATION FOUNDATION, priority 2020, published 2023)

Tests used:
[1] = test system: FMD-NSPCs (fetal midbrain derived neural stem/progenitor cells); assay: Differentiation of neural stem cells into dopaminergic neurons, immunochemical staining for TH and Tuj1; type: cell-based, human; conditions: FIG. 3; FA: 0.1 mM; over time of differentiation
FMD-NPCs = assay: Differentiation rate by subculture number, TH expression measured by fluorescence intensity; type: cell-based, human; conditions: FIG. 11; as the cells were subcultured
Description: For each group, neural stem cells (A) subcultured less than 10 times, (B) subcultured 10 or more times and 20 or less times, (C) subcultured 20 or more times were used to compare average values, to compare and analyze differentiation rates according to a subcultured number.

## CCCCc1ccc(C(=O)O)nc1 [FA alone, 5-butylpicolinic acid]
[1]
  Tuj1 expression: increased over time
  expression of TH: decreased over time
FMD-NPCs
  rate of differentiation into TH: gradually decreased
